Assay [1] deals with Therminator X DNA polymerase. The experiment in a line: Incorporation of 3′-O-azidomethyl-dNTPs to the 3′ end of blunt-ended DNA by Therminator X DNA polymerase (gel). The class given is biochemical, Thermococcus species 9° N. The following applies: presence of Mn2+ ions, 37° C. On the procedure: • 1. 5 μl of 10× Thermopol® buffer (20 mM Tris-HCl, 10 mM (NH4)2SO4, 10 mM KCl, 2 mM MgSO4, 0.1% Triton® X-100, pH 8.8, New England Biolabs) was mixed with 33.5 μl of sterile deionized water (ELGA VEOLIA) in a 1.5 ml Eppendorf tube. • 2. 2 μl of 20 μM primer (40 pmol, 1 equiv) (SEQ ID: NO: 68, FIG. 56a) and 3 μl of 20 μM template (60 pmol, 1.5 equiv) (SEQ ID: NO: 69, FIG. 56a) were added to the reaction mixture. • 3. 3′-O-modified-dTTP (2 μl of 100 μM) and MnCl2 (2.5 μl of 40 mM) were added. • 4. 2 μl of Therminator X DNA polymerase (20 U, New England BioLabs) was then added. • 5. The reaction was incubated for 30 minutes at 37° C. • 6. The reaction was stopped by addition of TBE-Urea sample buffer (Novex). • 7. The reaction was separated on polyacrylamide gel (15%) TBE buffer and visualized by ChemiDoc MP imaging system (BioRad).

Assay [2] has as its system Therminator IX DNA polymerase. Put plainly: Incorporation of 3′-O-modified-dNTPs opposite complementary base by Therminator IX DNA polymerase, with helper strand (gel). The class given is biochemical, Thermococcus species 9° N. On the procedure:
• 1. 2 μl of 10× Thermopol® buffer (20 mM Tris-HCl, 10 mM (NH4)2SO4, 10 mM KCl, 2 mM MgSO4, 0.1% Triton® X-100, pH 8.8, New England BioLabs) was mixed with 12.25 μl of sterile deionized water (ELGA VEOLIA) in 1.5 ml Eppendorf tube. • 2. 0.5 μl of 10 μM primer (5 pmol, 1 equiv) (SEQ ID NO: 22, FIG. 23j) and 0.75 μl of 10 μM template-A/G/T/C ([…], 1.5 equiv) (SEQ ID NOS: 23 to 26, FIG. 23j) and 1 μl of 10 μM helper strand-T/C/A/G (10 pmol, 2 equiv) (SEQ ID NOS: 27 to 30, FIG. 23j) were added to the reaction mixture. • 3. 3′-O-modified-dTTP/dCTP/dATP/dGTP (2 μl of 100 μM) and MnCl2 (1 μl of 40 mM) were added. • 4. 1.5 μl of Therminator IX DNA polymerase (15 U, New England BioLabs) was then added. • 5. […] The reaction was stopped by addition of TBE-Urea sample buffer (Novex). • 7. The reaction was separated on polyacrylamide gel (15%) TBE buffer and visualized by ChemiDoc MP imaging system (BioRad).
• 1. 5 μl of reaction mixture was added to 5 μl of TBE-Urea sample buffer (Novex) in a sterile 1.5 ml Eppendorf tube and heated to 95° C. for 5 minutes using a heat ThermoMixer (Eppendorf). • 2. 5 μl of the sample were then loaded into the wells of a 15% TBE-Urea gel 1.0 mm×10 well (Invitrogen) which contained preheated 1×TBE buffer Thermo Scientific (89 mM Tris, 89 mM boric acid and 2 mM EDTA). • 3. […]

The test system of assay [3] is DNA containing inosine. Put plainly: Two-step cleavage of inosine-containing oligonucleotide with hAAG and base or Endo VIII (gel). It counts as biochemical. The procedure: A cleavage reaction on oligonucleotides was carried out using the procedure below: • 1. A pipette (Gilson) was used to transfer 41 μl sterile distilled water (ELGA VEOLIA) into a 1.5 ml Eppendorf tube. • 2. 50 of 10× ThermoPol® reaction buffer NEB (20 mM Tris-HCl, 10 mM (NH4)2SO4, 10 mM KCl, 2 mM MgSO4, 0.1% Triton® X-100, pH 8.8) were then added into the same Eppendorf tube. • 3. 10 each of oligonucleotides (FIG. 18e); template (SEQ ID NO: 3) or any fluorescently tagged long oligo strand, primer with T (SEQ ID NO: 4) and control (SEQ ID NO: 5) all at 5 pmols were added into the same tube. • 4. 10 of Human Alkyladenine DNA Glycosylase (hAAG) NEB (10 units/0) was added into the same tube. • 5. Reaction mixture was then gently mixed by resuspension with a pipette, centrifuged at 13,000 rpm for 5 seconds and incubated at 37° C. for 1 hour. • 6. Typically after incubation time had elapsed, the reaction was terminated by enzymatic heat inactivation (i.e. 65° C. for 20 minutes).
• 1. 2 μl (10-100 ng/0) DNA was added into a sterile 1.5 ml Eppendorf tube. • 2. 40 μl (0.2M) NaOH or 1.5 μl Endo VIII NEB (10 units/0) and 5 μl 10× Reaction Buffer NEB (10 mM Tris-HCl, 75 mM NaCl, 1 mM EDTA, pH 8 @ 25° C.) was also added into the same tube and gently mixed by resuspension and centrifugation at 13000 rpm for 5 sec. • 3. […]

Assay [4] relates to Hairpin Oligonucleotide. Put plainly: Cleavage of hairpin oligonucleotide with Endonuclease V (gel). The class given is biochemical. The settings on record: 37° C. On the procedure:
Cleavage reaction on hairpin oligonucleotides was carried out using the procedure below: • 1. A pipette (Gilson) was used to transfer 43 μl sterile distilled water (ELGA VEOLIA) into a 1.5 ml Eppendorf tube. • 2. 50 of 10× Reaction Buffer® NEB (50 mM potassium acetate, 20 mM Tris-acetate, 10 mM magnesium acetate, 1 mM DTT, pH 7.9@25° C.) was then added into the same Eppendorf tube. • 3. 111 of hairpin oligonucleotide (SEQ ID NO: 45, FIG. 28c) having an amount of 5 pmols was added into the same tube. • 4. 10 of Human Endonuclease V (Endo V) NEB (30 units/μl) was added into the same tube. • 5. […] Typically after incubation time had elapsed, the reaction was terminated by enzymatic heat inactivation (i.e. 65° C. for 20 minutes).
(§1) • 1. 5 μl of DNA and TBE-Urea sample buffer (Novex) was added into a sterile 1.5 ml Eppendorf tube and heated to 95° C. for 2 minutes using a heat ThermoMixer (Eppendorf). • 2. The DNA mixtures were then loaded into the wells of a 15% TBE-Urea gel 1.0 mm×10 well (Invitrogen) which contained preheated 1×TBE buffer Thermo Scientific (89 mM Tris, 89 mM boric acid and 2 mM EDTA). • 3. X-cell sure lock module (Novex) was fastened in place and electrophoresis performed at the following conditions; 260V, 90 Amps for 40 minutes at room temperature. • 4. Detection and visualization of DNA in the gel was carried out with ChemiDoc MP (BioRad) using Cy3 LEDS. Visualization and analysis was carried out on the Image lab 2.0 platform.

In assay [5] the test system is DNA containing inosine. The experiment in a line: One-step cleavage of oligonucleotide with Endonuclease V (gel). It counts as biochemical. The settings on record: 37° C. On the procedure:
Cleavage reaction on oligonucleotides was carried out using the procedure below: • 1. A pipette (Gilson) was used to transfer 41 μl sterile distilled water (ELGA VEOLIA) into a 1.5 ml Eppendorf tube. • 2. 50 of 10× Reaction Buffer® NEB (50 mM Potassium Acetate, 20 mM Tris-acetate, 10 mM Magnesium Acetate, 1 mM DTT, pH 7.9@25° C.) was then added into the same Eppendorf tube. • 3. 1 μl each of oligonucleotides (FIG. 24d); Template (SEQ ID NO: 31) or any fluorescently tagged long oligo strand, Primer with T (SEQ ID NO: 32) and control (SEQ ID NO: 33) and helper strand (SEQ ID NO: 34), all at 5 pmols, were added into the same tube. • 4. 1 μl of Human Endonuclease V (Endo V) NEB (10 units/μl) was added into the same tube. • 5. Reaction mixture was then gently mixed by resuspension with a pipette, centrifuged at 13,000 rpm for 5 seconds and incubated at 37° C. for 1 hour. • 6. Typically after incubation time had elapsed, reaction was terminated by enzymatic heat inactivation (i.e. 65° C. for 20 minutes).
as §1, with “thermoblock” for “ThermoMixer”, “Chemidoc” for “ChemiDoc”

On to 3′-O-azidomethyl-dATP, for which, in assay [1], the Incorporation efficiency is recorded as over 99%.

Take 3′-O-azidomethyl-dCTP: the Incorporation efficiency in assay [1] is given as over 90%.

Regarding 3′-O-azidomethyl-dGTP, the Incorporation efficiency in assay [1] is over 99%.

Take 3′-O-azidomethyl-dTTP: the Incorporation efficiency in assay [1] is over 99%. Also, the primer remains unextended in assay [2] (after 20 minutes at 37° C. and 47° C.) is given as 10%. In addition, in assay [2] (in the presence of a helper strand, after 5 minutes), the Incorporation is 90%.

Consider “hAAG DNA glycosylase: Human Alkyladenine DNA Glycosylase (hAAG) NEB”, for which the results for the “yield of cleaved DNA (cleaved to uncleaved DNA ratio)” value in assay [3] (with a helper strand) and in assay [3] (without a helper strand) were 50% and 10%, respectively.

B1: Endo V: Human Endonuclease V (Endo V) NEB (protein, UniProt Q8N8Q3 1-282, looked up)
Endonuclease V: MALEAAGGPPEETLSLWKREQARLKAHVVDRDTEAWQRDPAFSGLQRVGGVDVSFVKGDSVRACASLVVLSFPELEVVYEESRMVSLTAPYVSGFLAFREVPFLLELVQQLREKEPGLMPQVLLVDGNGVLHHRGFGVACHLGVLTDLPCVGVAKKLLQVDGLENNALHKEKIRLLQTRGDSFPLLGDSGTVLGMALRSHDRSTRPLYISVGHRMSLEAAVRLTCCCCRFRIPEPVRQADICSREHIRKSLGLPGPPTPRSPKAQRPVACPKGDSGESSALC
Consider B1, for which the “yield of digested DNA” value in assay [4] (after 5 minutes) is reported as about 98%; in assay [4] (after 10 minutes), about 99%; in assay [4] (after 30 minutes), about 99%; in assay [4] (after 1 hr), about 99%. The “yield of cleaved DNA (cleaved to uncleaved DNA ratio)” value in assay [5] (positive control that contained both full length strands) is recorded as 80%. Also, in assay [5] (with a helper strand), the DNA cleavage yield was over 99%. Besides, the “yield of cleaved DNA” value in assay [5] (without a helper strand) is over 99%.

The values are drawn from patent publication US20220396818A1, “POLYNUCLEOTIDE SYNTHESIS METHOD, KIT AND SYSTEM” (Oxford Nanopore Technologies PLC, priority 2019, published 2022).
